Measurements: patent publication US20210069333A1, “CANNABINOIDS IN COMBINATION WITH NON-CANNABINOID CHEMOTHERAPEUTIC AGENTS” (GW Pharma Limited, priority 2008, published 2021)

How the values were obtained:
[1] = system: human U87 MG astrocytoma cells; assay: Cell viability of human U87 MG astrocytoma cells in culture; type: cell-based; settings: for IC50: Homo sapiens, U-87 MG, read-out: IC50 μM (pure cannabinoids); for reduction of cell viability in combination with THC vs agent alone: U87 MG, combined with THC, FIGS. 4 and 5
Experimental: Tetrahydrocannabinol (THC) and cannabidiol (CBD) in the form of cannabis plant extracts were dissolved in ethanol to a concentration of 100 mM this was stored at −20° C. until required.
Before use the cannabis plant extracts were further diluted to the desired concentration, ensuring that the concentration of ethanol was below 0.001%.
U87 human glioma cells were used throughout this experiment. The cells were maintained at 37° C. in a humidified atmosphere with 5% CO2 and 95% air.
Cells were cultured in a 75 cm^2 culture flask in Dulbecco's Modified Eagle Medium (DMEM), which had been supplemented with 4 mM L-glutamine, 100 units/ml penicillin, […], 1% sodium pyruvate, 1% non-essential amino acids and 10% heat-inactivated fetal bovine serum.
The viability of the human U87 MG astrocytoma cells were examined at various cannabinoid concentrations. The THC and CBD extracts were compared against pure THC and CBD.
The methods used were as described in Example 1 above.
The action of THC, CBD, and a 1:1 ratio mix of THC and CBD were studied at different concentrations on two cell lines: U87MG and T98G.
Cell viability assays were performed as described in Example 1 above.

[2] = system: Human U87 MG astrocytoma cells xenografted to nude mice; assay: U87 MG astrocytoma xenograft in nude mice, tumour volume; type: in vivo; settings: 15 mg/kg per day, injected peritumourally
Experimental: Human U87 MG astrocytoma cells were xenografted to nude mice and the test compounds were injected peritumourally at a concentration of 15 mg/kg per day.

U87MG cells = assay: Induced cell death in U87MG cells with ATG1 silencing or pan-caspase inhibitor; settings: cell death induced by the THC:CBD combination, FIGS. 3b and 3c

## C=C(C)[C@@H]1CCC(C)=C[C@H]1c1c(O)cc(CCCCC)cc1O [CBD, cannabidiol]
[1]
  IC50: 0.47 µM

## CCCCCc1cc(O)c2c(c1)OC(C)(C)[C@@H]1CCC(C)=C[C@@H]21 [THC, tetrahydrocannabinol]
[2]
  Tumour volume relative to zero time following 15 days of treatment: 5.1 ± 0.4
[1]
  IC50: 0.37 µM

## CC/C(=C(\c1ccccc1)c1ccc(OCCN(C)C)cc1)c1ccccc1 [tamoxifen]
[1]
  reduction of cell viability in combination with THC vs agent alone: more efficient at reducing cell viability

## N.N.[Cl][Pt][Cl] [cisplatin]
[1]
  reduction of cell viability in combination with THC vs agent alone: more efficient at reducing cell viability

## Z-VAD
U87MG cells
  effect on induced cell death: prevent induced cell death
